Measured values from patent publication US4359462A, “Antibiotic 67-121, a new polyene antifungal antibiotic produced by Actinoplanes caeruleus” (priority 1980, dated 1982).
Converted amounts (≈) assume the structure as drawn. Where two headings read alike, the source gives them in different places.

Assays:
[1] = Acute toxicity in male CF 1 mice; details: mouse, in vivo
Protocol: Similarly, in another series of tests the acute toxicity of antibiotics 67-121A, 67-121B and 67121C were determined in male CF 1 mice.

Torulopsis = assay: In vitro antifungal activity, MIC by tube dilution; assay type: cell-based; details: two strains of Torulopsis; same conditions (48 hours)
Protocol: (§1) For reference, data on candicidin are also given. The quoted minimal inhibitory concentrations (MIC) were obtained by conventional tube dilution techniques using Sabouraud's dextrose broth.
(§2) As representative of the component antibiotics, antibiotic 67-121A and antibiotic 67-121C were tested in the same manner as the complex. Antibiotic 67-121A gave MIC values of from less than 0.01 up to 0.03 meg/ml. against 18 strains of Candida albicans, while antibiotic 67-121C gave MIC values of 0.05 to 0.3 meg/ml. against 9 strains of Candida albicans after incubation times of 48 hours. Further testing of antibiotic 67-121C under the same conditions gave MIC values of 0.3 meg/ml. against two strains of Torulopsis and a single strain of Cryotococcus.

Cryotococcus = assay: In vitro antifungal activity, MIC by tube dilution; assay type: cell-based; details: single strain; same conditions (48 hours)
Protocol: as §1, §2

physchem = details: 66% aqueous dimethylformamide
Candida albicans [2] = assay: In vivo protective activity in mice against Candida albicans, single dose one hour after infection; set-up: species or system CF 1 mice; details: read-out: PD50
Protocol: (§3) The in vivo protective activity of the antibiotic products in mice (Carworth farm CF 1 mice, each weighing about 20 g.) against Candida albicans was determined. The antibiotic was administered by the stated route in an aqueous vehicle containing 0.5% carboxymethyl cellulose and in two doses. One dose was administered shortly before intravenous infection with a lethal dose of Candida albicans and the other dose was administered 4 hours after infection. Most of the unprotected control mice died within 24 to 48 hours after infection. The survival rate was determined at the end of 24 and 48 hours and from this using standard procedures the PD50 values were determined.
The PD50 values for antibiotics 67-121A, 67-121B and 67-121C using CF 1 mice were determined using essentially the above described method, with the exception that the antibiotic was administered as a single dose one hour after infection with Candida albicans.
The PD50 values were determined on survivors 72 hours after infection. Of the untreated, infected control mice, 80% died within 24 hours and 100% within 48 hours.

Candida albicans [3] = assay: In vivo protective activity in mice against lethal Candida albicans infection, two doses; set-up: species or system mice (Carworth farm CF 1); details: survivors 48 hours after infection
Protocol: as §3
The results obtained for the Antibiotic 67-121 complex are given in Table 5 together with data for candicidin (for comparison purposes). The PD50 values were determined on survivors 48 hours after infection.

[4] = test system: Trichophyton mentagrophytes; assay: In vitro antifungal activity, MIC by tube dilution; assay type: cell-based; details: 72 hrs.
Source text: as §1

Trichophyton soudanese = assay: In vitro antifungal activity, MIC by tube dilution; assay type: cell-based; details: strain 2; 72 hrs.
Source text: as §1

Terulopsis glabrata = assay: In vitro antifungal activity, MIC by tube dilution; assay type: cell-based
Source text: as §1

Aspergillus niger = assay: In vitro antifungal activity, MIC by tube dilution; assay type: cell-based; details: 72 hrs.
Source text: as §1

Candida albicans [5] = assay: In vitro antifungal activity, MIC by tube dilution (Sabouraud's dextrose broth); assay type: cell-based
Protocol: as §1, §2

mice = assay: Acute toxicity in mice; assay type: in vivo
Protocol: The acute toxicity of the antibiotic 67-121 complex in mice was determined via intraperitoneal (I.P.) and subcutaneous (S.C.) administration. For comparison, the values of candicidin were determined.

pKa = details: 66% aqueous dimethylformamide, 66% aqueous dimethyl formamide
[6] = Oral, single dose one hour after infection, survivors 72 hours after infection
[7] = sc, Subcutaneous, single dose one hour after infection, survivors 72 hours after infection

Which LD50 ([1]; ip) does the source give for `CNc1ccc(C(=O)CC(O)CCC(C)C2OC(=O)CC(O)CC(O)CC(O)CC(O)CC(O)CC(O)CC3(O)CC(O)C(C(=O)O)C(CC(OC4OC(C)C(OC5OC(CO)C(O)C(O)C5O)C(N)C4O)C=CC=CC=CC=CC=CC=CC=CC2C)O3)cc1` (centres unmarked) [Antibiotic 67-121C] here?
The LD50 was 6 mg/kg.

What about the MIC (Torulopsis) of the same molecule?
The MIC was 0.3 µg/mL (≈ 0.232 µM).

And the MIC (Cryotococcus)?
Its MIC is 0.3 µg/mL (≈ 0.232 µM).

And the pKa (physchem; pka (COO^-))?
Its pKa is 6.

And the pKa (physchem; pka (NH3^+))?
The pKa was 9.

And the ED50 (Candida albicans [2]; [6])?
Its ED50 is 1.5 mg/kg.

And the ED50 (Candida albicans [2]; [7])?
The ED50 was 2.1 mg/kg.

Which LD50 ([1]; ip) does the source give for `CC1C=CC=CC=CC=CC=CC=CC=CC(OC2OC(C)C(O)C(N)C2O)CC2OC(O)(CC(O)CC(O)CC(O)CC(O)CC(O)CC(O)CC(=O)OC1C(C)CCC(O)CC(=O)c1ccc(N)cc1)CC(O)C2C(=O)O` (centres unmarked) [Antibiotic 67-121B] here?
Its LD50 is 6 mg/kg.

What about the LD50 ([1]; po) of the same molecule?
Its LD50 is greater than 50 mg/kg.

And the LD50 ([1]; sc)?
The LD50 was greater than 50 mg/kg.

What about the pKa (physchem; pka (COO^-)) of the same molecule?
Its pKa is 6.3.

What about the pKa (physchem; pka (NH3^+)) of the same molecule?
Its pKa is 9.

And the ED50 (Candida albicans [2]; [6])?
The ED50 was 18 mg/kg.

And the ED50 (Candida albicans [2]; [7])?
Its ED50 is 15 mg/kg.

What does the source list for Candicidin?
PD50 (Candida albicans [3]; Test 1, Oral): 25 mg/kg; PD50 (Candida albicans [3]; Test 1, Subcutaneous): 5 mg/kg; PD50 (Candida albicans [3]; Test 2, Oral): 5 mg/kg; PD50 (Candida albicans [3]; Test 2, Subcutaneous): 5 mg/kg; PD50 (Candida albicans [3]; Test 3, Subcutaneous): 25 mg/kg; PD50 (Candida albicans [3]; Test 4, Oral): 40 mg/kg; PD50 (Candida albicans [3]; Test 4, Subcutaneous): 2.5 mg/kg; Minimum Inhibitory Concentration (M.I.C.) ([4]; strain 1A): 17.5 meg/ml; Minimum Inhibitory Concentration (M.I.C.) ([4]; strain 17): 25 meg/ml; Minimum Inhibitory Concentration (M.I.C.) (Trichophyton soudanese): 25 meg/ml; Minimum Inhibitory Concentration (M.I.C.) (Terulopsis glabrata; strain 1, 24 hrs.): 0.03 meg/ml; Minimum Inhibitory Concentration (M.I.C.) (Terulopsis glabrata; strain 1, 48 hrs.): 0.3 meg/ml; Minimum Inhibitory Concentration (M.I.C.) (Terulopsis glabrata; strain 2, 24 hrs.): 0.03 meg/ml; Minimum Inhibitory Concentration (M.I.C.) (Terulopsis glabrata; strain 2, 48 hrs.): 0.08 meg/ml; Minimum Inhibitory Concentration (M.I.C.) (Terulopsis glabrata; strain 3, 24 hrs.): 0.03 meg/ml; Minimum Inhibitory Concentration (M.I.C.) (Terulopsis glabrata; strain 3, 48 hrs.): 0.08 meg/ml; Minimum Inhibitory Concentration (M.I.C.) (Terulopsis glabrata; strain 16, 24 hrs.): 0.03 meg/ml; Minimum Inhibitory Concentration (M.I.C.) (Terulopsis glabrata; strain 16, 48 hrs.): 0.3 meg/ml; Minimum Inhibitory Concentration (M.I.C.) (Terulopsis glabrata; strain 17, 24 hrs.): 0.03 meg/ml; Minimum Inhibitory Concentration (M.I.C.) (Terulopsis glabrata; strain 17, 48 hrs.): 0.08 meg/ml; Minimum Inhibitory Concentration (M.I.C.) (Aspergillus niger): 7.5 meg/ml; Minimum Inhibitory Concentration (M.I.C.) (Candida albicans [5]; strain 401, 24 hrs.): 0.8 meg/ml; Minimum Inhibitory Concentration (M.I.C.) (Candida albicans [5]; strain 401, 48 hrs.): 3.0 meg/ml; Minimum Inhibitory Concentration (M.I.C.) (Candida albicans [5]; strain 402, 24 hrs.): 0.03 meg/ml; Minimum Inhibitory Concentration (M.I.C.) (Candida albicans [5]; strain 402, 48 hrs.): 0.08 meg/ml; Minimum Inhibitory Concentration (M.I.C.) (Candida albicans [5]; strain 403, 24 hrs.): 0.03 meg/ml; Minimum Inhibitory Concentration (M.I.C.) (Candida albicans [5]; strain 403, 48 hrs.): 0.08 meg/ml; Minimum Inhibitory Concentration (M.I.C.) (Candida albicans [5]; strain 404, 24 hrs.): 0.8 meg/ml; Minimum Inhibitory Concentration (M.I.C.) (Candida albicans [5]; strain 404, 48 hrs.): 3.0 meg/ml; Minimum Inhibitory Concentration (M.I.C.) (Candida albicans [5]; strain 406, 24 hrs.): 0.03 meg/ml; Minimum Inhibitory Concentration (M.I.C.) (Candida albicans [5]; strain 406, 48 hrs.): 0.08 meg/ml; Minimum Inhibitory Concentration (M.I.C.) (Candida albicans [5]; strain 420, 24 hrs.): 3.0 meg/ml; Minimum Inhibitory Concentration (M.I.C.) (Candida albicans [5]; strain 420, 48 hrs.): 7.5 meg/ml; LD50 (mice; I.P.): 8 to 22 mg/kg; LD50 (mice; S.C.): 300 mg/kg

Which results are given for `CNc1ccc(C(=O)CC(O)CCC(C)C2OC(=O)CC(O)CC(O)CC(O)CC(O)CC(O)CC(O)CC3(O)CC(O)C(C(=O)O)C(CC(OC4OC(C)C(O)C(N)C4O)C=CC=CC=CC=CC=CC=CC=CC2C)O3)cc1` (centres unmarked) [Antibiotic 67-121A]?
LD50 ([1]; ip, I.P.): 2.4 mg/kg; LD50 ([1]; sc, S.C.): > 50 mg/kg; LD50 ([1]; Oral): > 50 mg/kg; pKa (pKa; pka (COO^-)): 6; pKa (pKa; pka (NH3^+)): 9; ED50 (Candida albicans [2]; po, 72 h): 1.5 mg/kg; ED50 (Candida albicans [2]; sc, 72 h): 2.5 mg/kg
